The results in this text go back to patent publication US9868935B2, “Composition and method of stem cells for preservation of cardiac tissue” (CRIOESTAMINAL, SAÚDE E TECNOLOGIA, SA., priority 2012, dated 2018).

Molecules are shown by their SMILES.

Data set [1] has as its system CD34+ cells. Kind of data set: Antagonist pretreatment and LPA-induced CD34+ cell survival in hypoxia (Annexin V/PI FACS). In kind it is cell-based, human. The conditions noted are these: hypoxia 24 h; for effect of antagonist on pro-survival effect of LPA: antagonist 1 h pretreatment + LPA 100 μM. The protocol: FIG. 5—LPA induces CD34+ cell survival mainly through peroxisome proliferator-activator receptor (PPAR). Cells were cultured in serum free medium with LPA. Cells were pretreated with Rho kinase inhibitor (Y-2762, 50 μM), mitogen-activated protein kinase (MAPK) inhibitor (PD98059, 60 μM), LPA1- and LPA3-specific inhibitor (Ki16425, 10 μM), or peroxisome proliferator-activator receptor g (PPARg) inhibitor (GW9662, 50 μM) for 1 hour before hypoxia and cell medium containing LPA (100 μM) for 24 h. Cells without any pretreatment and cultured in serum free medium with or without LPA, in hypoxia for 24 h, were used as positive and negative controls, respectively. Results are average±SEM (n=3-6). * Denote statistical significance: *P<0.05, **P<0.01, […].
The biological roles of LPA are diverse and include developmental, physiological, and pathophysiological effects (Lin, M. E., D. R. Herr, and J. Chun, Lysophosphatidic acid (LPA) receptors: signaling properties and disease relevance. Prostaglandins Other Lipid Mediat, 2010. 91(3-4): p. 130-8). To date up to five LPA receptors (LPARs) have been identified: LPA1-LPA5 (Choi, J. W., et al., LPA receptors: subtypes and biological actions. Annu Rev Pharmacol Toxicol, 2010. 50: p. 157-86). The receptors are G protein-coupled receptors (GPCRs) and their presence can be found in multiple tissues. LPA1, LPA2 and LPA3 are widely expressed in most tissues (Ishii, I., et al., Functional comparisons of the lysophosphatidic acid receptors, LP(A1)/VZG-1/EDG-2, LP(A2)/EDG-4, and LP(A3)/EDG-7 in neuronal cell lines using a retrovirus expression system. Mol Pharmacol, 2000. 58(5): p. 895-902). LP4 is expressed in specific organs, such as the pancreas, ovaries and thymus (Lee, C. W., et al., LPA(4)/GPR23 is a lysophosphatidic acid (LPA) receptor utilizing G(s)-, G(q)/G(i)-mediated calcium signaling and G(12/13)-mediated Rho activation. J Biol Chem, 2007. 282(7): p. 4310-7). LPA5 is expressed at low levels in multiple tissues (Lee, C. W., et al., GPR92 as a new G12/13- and Gq-coupled lysophosphatidic acid receptor that increases cAMP, LPA5. J Biol Chem, 2006. 281(33): p. 23589-97). To identify the receptor that is mediating the pro-survival effect of LPA (100 μM), was used Ki16425 (10 μM), an LPA1- and LPA3-specific antagonist, and GW9662 (50 μM), an antagonist of peroxisome proliferator-activator receptor γ (PPAR γ). Studies indicate that LPA has a high affinity by this last receptor (McIntyre, T. M., et al., Identification of an intracellular receptor for lysophosphatidic acid (LPA): LPA is a transcellular PPARgamma agonist. Proc Natl Acad Sci USA, 2003. 100(1): p. 131-6; Gustin, C., M. Van Steenbrugge, and M. Raes, LPA modulates monocyte migration directly and via LPA-stimulated endothelial cells. Am J Physiol Cell Physiol, 2008. 295(4): p. C905-14). This approach was complemented, by inhibiting downstream targets of the receptors including Rho kinase and mitogen-activated protein kinase (MAPK) using Y-2762 (50 μM) and PD98059 (60 μM) antagonists, respectively. It is known that all LPARs couple with and activate G proteins, which in turn activate MAPK (LPA1, LPA2, LPA3 and LPA4) and Rho kinase (LPA1, LPA2, LPA4 and LPA5) (Choi, J. W., et al., LPA receptors: subtypes and biological actions. Annu Rev Pharmacol Toxicol, 2010. 50: p. 157-86). Cells were treated for 1 h in X-Vivo medium containing a specific antagonist followed by culture under hypoxia conditions for 24 h. Cell survival was assessed by FACS analysis after Annexin V/PI staining. […] The number of viable cells decreased from 77% (+LPA) to 67% (P<0.01, n=19). […] Because the two signaling pathways are downstream targets of different LPARs (see above), this might indicate different contributions of LPARs in the survival of CD34+ cells.

Data set [2] deals with human umbilical cord blood derived CD34+ cells. Kind of data set: CD34+ cell survival in hypoxia and serum deprived conditions (Annexin V/PI flow cytometry). As to conditions: hypoxia 0.5% O2, 24 h, serum free; P<0.001. In kind it is cell-based. The protocol:
In an embodiment, UCB CD34+ cells (1×10^^6 cells/mL) were incubated in X-Vivo media (Lonza) in a hypoxia chamber for 24 h (0.5% of O2 and 5% of CO2), in the presence or absence of pharmacological drugs, for further assessment of cell survival/apoptosis and necrosis by FACS analysis of the expression of annexin V and PI respectively. Preferably, cells were pretreated with the respective drugs for 1 hour before hypoxia, and treatment maintained during hypoxia.
In a preferred embodiment, to identify molecules that promote CD34+ cell survival in hypoxia and serum deprived conditions we developed an assay that uses human umbilical cord blood derived CD34+ cells (2×10^^5 cells per well of a 96-well plate) suspended in X-Vivo medium (used in clinical trials (Schachinger, V., et al., Intracoronary bone marrow-derived progenitor cells in acute myocardial infarction. N Engl J Med, 2006. 355(12): p. 1210-21)) and incubated in a hypoxia chamber at 0.5% O2, at 37° C., for 24 h. Some of the drugs selected have been approved by FDA for the treatment of cardiovascular diseases (e.g. Nebivolol Lombardo, R. M., et al., Effects of nebivolol versus carvedilol on left ventricular function in patients with chronic heart failure and reduced left ventricular systolic function. Am J Cardiovasc Drugs, 2006. 6(4): p. 259-63; Ibersatan Massie, B. M., et al., Irbesartan in patients with heart failure and preserved ejection fraction. N Engl J Med, 2008. 359(23): p. 2456-67), others are being evaluated in pre-clinical/clinical assays to improve heart function in patients/models with heart failure (e.g. INO1001 (Szabo, G., et al., INO-1001 a novel poly(ADP-ribose) polymerase (PARP) inhibitor improves cardiac and pulmonary function after crystalloid cardioplegia and extracorporal circulation. Shock, 2004. 21(5): p. 426-32); erythropoietin (Belonje, A. M., et al., Effects of erythropoietin after an acute myocardial infarction: rationale and study design of a prospective, randomized, clinical trial (HEBE III). Am Heart J, 2008. 155(5): p. 817-22); melatonin (Chen, Z., et al., Protective effect of melatonin on myocardial infarction. Am J Physiol Heart Circ Physiol, 2003. 284(5): p. H1618-24); VX-702 (Ma, X. L., et al., Inhibition of p38 mitogen-activated protein kinase decreases cardiomyocyte apoptosis and improves cardiac function after myocardial ischemia and reperfusion. Circulation, 1999. 99(13): p. 1685-91)), others are natural substances found in the human body (LPA). Cell viability was evaluated by flow cytometry using Annexin V/propidium iodide (PI) staining. Annexin V is a phospholipid-binding protein with specificity for phospatidyl serine, one of the earliest makers of cellular transition to an apoptotic state. This phospholipid is translocated from the inner to the outer leaflet of the plasma membrane (Koopman, G., et al., Annexin V for flow cytometric detection of phosphatidylserine expression on B cells undergoing apoptosis. Blood, 1994. 84(5): p. 1415-20.). PI enters in necrotic cells and binds to double-stranded nucleic acids, but is excluded from cells with normal integrity. According to FIG. 1, untreated CD34+ cells show a very poor survival, with only ˜31% of viable cells, ˜31% of apoptotic cells (Annexin V+/PI−) being the majority of the cells ˜39% at the necrotic stage (PI+). […] LPA (10 μM) was the drug with the highest pro-survival effect (˜69% of viable cells) and therefore further studied (FIGS. 1 and 2A).
Importantly, the percentage of viable cells in CD34+ treated with 1 μM of LPA and cultured under hypoxia conditions is similar to untreated cells cultured under normoxia conditions. The pro-survival effect of LPA decreases as a function of hypoxia time (FIG. 2C). The percentage of viable cells in LPA-treated CD34+ cells decreased from 78% at day 1 to 40% at day 3.

As to `Cc1noc(-c2ccc(CSCCC(=O)O)cc2)c1NC(=O)OC(C)c1ccccc1Cl` (stereo not drawn) [Ki16425], the “number of viable cells induced by LPA after antagonist” value in data set [1] (Ki16425 10 μM 1 h pretreatment + LPA 100 μM, P<0.01, n=19) came to 67%. The “effect of antagonist on pro-survival effect of LPA” value (shortened to “effect of antagonist”) in data set [1] is given as “relatively small effect”.
`COc1cccc(-c2cc(=O)c3ccccc3o2)c1N` [PD98059]: the “effect of antagonist” value in data set [1] is given as “suppressed at higher levels the pro-survival effect of LPA than the inhibition of Rho kinase signaling pathway”.
Consider `O=C(Nc1ccccc1)c1cc([N+](=O)[O-])ccc1Cl` [GW9662], for which the “number of viable cells induced by LPA after antagonist” value in data set [1] (GW9662 50 μM 1 h pretreatment + LPA 100 μM, P<0.001, n=11) is about 53%. Also, in data set [1], the “effect of antagonist” value is on record as “did not block totally the pro-survival effect of LPA”.
For the compound `CCCCC[C@H](O)/C=C/[C@H]1[C@H](O)CC(=O)[C@@H]1C/C=C\CCCC(=O)O` [prostaglandin E2, reference compound], in data set [2], the “cell survival vs untreated cells” value is “improved significantly”.
